Measurements published in US8058242B2, “Chimeric proteins with natriuretic activity” (The University of Queensland, priority 2004, dated 2011).
Positions of bridges follow the written chain, without caps; N, C: chain ends. Residues, ends and D or L forms follow the SMILES beside them.

Tested on: CHF-induced sheep
Assay: Ovine model of tachycardia induced congestive heart failure (Example 9)
Assay type: in vivo
Description: All procedures conform with the Guide for the Care and Use of Laboratory Animals published by the US National Institutes of Health (NIH Publication No. 82-23, revised 1996). Six adult crossbred sheep (weight, 50 to 55 kg) were implanted with pacemakers under isoflurane anesthesia and oxygen. A bipolar screw fixation ventricular pacing lead was placed transvenously under fluoroscopic guidance in the apex of the right ventricle. The proximal end of the lead was connected to pacemakers reprogrammed for high-rate pacing (Sigma, Medtronic) that were positioned subcutaneously in the lateral aspect of the neck. Oxytetracycline (5 mL), an antibiotic, and flunixin meglumine (1 mL), an analgesic, were administered subcutaneously prophylactically on the day of surgery. After 3 days of recovery, right ventricular pacing was initiated at 180 bpm and continued for 4 weeks to induce CHF (NYHC III). Animals were anesthetized and an echocardiographic examination and a conductance catheter evaluation were performed.
Animals were randomized to either TNPc or ANP on two consecutive days, according to the schedule in Table 11B. Studies were conducted over a period of 4 days with two study groups.
On the day of the first experiment, after a control period in which baseline measurements were made, drug infusion via a fore-leg vein using new calibrated Terumo syringe pumps was commenced (TNPc or ANP randomized to days 1 or 2) at 2, 4 and 6 pmol/min/kg, each for 30 min. Echocardiographic and conductance catheter evaluations were performed at 30 min after each drug level. On the second day, the experiment was repeated with the other drug (either TNPc or […] according to day 1 treatment) at 2, 4 and 6 pmol/min, each for 30 min and echocardiographic and conductance catheter evaluations were performed at 30 min after each drug level. The animal was euthanased at the conclusion of the experiment. Stock solutions of each peptide were made up under sterile conditions using sterile saline, were protected from light with aluminium foil and kept refrigerated.
Left ventricular (LV) ejection fraction was monitored by echocardiography and the conductance catheter was used to measure LV dP/i, LV end diastolic pressure, LV ESPVR, heart rate and mean arterial pressure (MAP). Values were expressed as mean +/−SEM and were analyzed by Students t-test. A value of p<0.05 was considered significant.

| Structure (SMILES) | reduction of −dp/dt (TNPc infusion) | +dP/dt (high dose infusion) | EDP (high dose infusion) | ESPR slope (high dose infusion) | ejection fraction (high dose infusion) | heart rate (high dose infusion) | −dP/dt (high dose infusion) | +dP/dt (low dose infusion) | EDP (low dose infusion) | ESPR slope (low dose infusion) | ejection fraction (low dose infusion) | heart rate (low dose infusion) | −dP/dt (low dose infusion) | +dP/dt (recovery (30 min)) | EDP (recovery (30 min)) | ESPR slope (recovery (30 min)) | ejection fraction (recovery (30 min)) | heart rate (recovery (30 min)) | −dP/dt (recovery (30 min)) |
| --- | --- | --- | --- | --- | --- | --- | --- | --- | --- | --- | --- | --- | --- | --- | --- | --- | --- | --- | --- |
| CC[C@H](C)[C@H](NC(=O)[C@H](CCCCN)NC(=O)[C@H](CO)NC(=O)[C@H](CC(=O)O)NC(=O)[C@@H](N)CO)C(=O)NCC(=O)N[C@@H](CC(N)=O)C(=O)NCC(=O)N[C@H]1CSSC[C@@H](C(=O)N[C@@H](CC(N)=O)C(=O)N[C@@H](CCCNC(=N)N)C(=O)N[C@H](C(=O)N[C@@H](CCSC)C(=O)N[C@@H](CCC(N)=O)C(=O)N[C@@H](CC(N)=O)C(=O)N2CCC[C@H]2C(=O)N2CCC[C@H]2C(=O)N[C@@H](CCCCN)C(=O)N[C@@H](CCCCN)C(=O)N[C@@H](Cc2ccccc2)C(=O)N[C@@H](CO)C(=O)NCC(=O)N[C@@H](CCC(=O)O)C(=O)O)[C@@H](C)CC)NC(=O)CNC(=O)[C@H](CC(C)C)NC(=O)CNC(=O)[C@H](CO)NC(=O)[C@H](C(C)C)NC(=O)[C@H](CO)NC(=O)CNC(=O)[C@H]([C@@H](C)CC)NC(=O)[C@H](CCCNC(=N)N)NC(=O)[C@H](CC(=O)O)NC(=O)[C@H](CC(C)C)NC(=O)[C@@H]2CCCN2C(=O)[C@H](Cc2ccccc2)NC(=O)CNC(=O)[C@H](Cc2ccccc2)NC1=O [TNPc] (H-SDSKIGNGCFGFPLDRIGSVSGLGCNRIMQNPPKKFSGE-OH; disulfide 9-25) | 27% | 1078.00 | 4.17 | 3.78 | 61.83 | 100.67 | 1298.00 | 1079.67 | 5.83 | 2.72 | 48.17 | 98.00 | 1469.50 | 1064.83 | 7.67 | 3.35 | 42.33 | 98.00 | 1201.50 |
| CC[C@H](C)[C@@H]1NC(=O)[C@H](CCCNC(=N)N)NC(=O)[C@H](CC(=O)O)NC(=O)[C@H](CCSC)NC(=O)[C@H](CCCNC(=N)N)NC(=O)CNC(=O)CNC(=O)[C@H](Cc2ccccc2)NC(=O)[C@@H](NC(=O)[C@H](CO)NC(=O)[C@H](CO)NC(=O)[C@H](CCCNC(=N)N)NC(=O)[C@H](CCCNC(=N)N)NC(=O)[C@H](CC(C)C)NC(=O)[C@@H](N)CO)CSSC[C@@H](C(=O)N[C@@H](CC(N)=O)C(=O)N[C@@H](CO)C(=O)N[C@@H](Cc2ccccc2)C(=O)N[C@@H](CCCNC(=N)N)C(=O)N[C@@H](Cc2ccc(O)cc2)C(=O)O)NC(=O)CNC(=O)[C@H](CC(C)C)NC(=O)CNC(=O)[C@H](CO)NC(=O)[C@H](CCC(N)=O)NC(=O)[C@H](C)NC(=O)CNC1=O [hANP, reference compound] |  | 1047.00 | 3.33 | 3.04 | 54.50 | 96.33 | 1332.17 | 949.33 | 5.83 | 2.85 | 42.17 | 91.00 | 1336.50 | 1035.83 | 6.33 | 3.44 | 41.00 | 91.00 | 1232.17 |
